Assay in all cases: Combination study, ATPLite 72 h, dose matrix (Synergy Score, CI50)
In general terms: ATP-based viability assays read luminescence as a measure of living cells.

One assay concerns TMD8. Particulars: for CI50 growth inhibition / CI50 inhibition / Synergy Score growth inhibition / Synergy Score inhibition: TMD8, Example 2.
The test system of another assay is Farage. Particulars: combination with Compound 1; Farage DLBCL cell line; FIG. 4-5.
Another assay concerns HBL-1.
A further assay relates to OCI-Ly3. Particulars: OCT-Ly3, Example 2.
The subject of the next assay is U-2932.
[1] abbreviates: combination with CAL-101, Example 2.
Where [2] appears, read: combination with Cmpd 1, Example 2.

Experimental for Farage: Cells are thawed from a liquid nitrogen preserved state. Once cells have been expanded and divide at their expected doubling times, screening begins. Cells are seeded in growth media in either black 1536-well or 384-well tissue culture treated plates. Cells are then equilibrated in assay plates via centrifugation and placed in incubators attached to the Dosing Modules at 37° C. for 24 hours before treatment. […] These Tzero (To) plates are read using ultra-sensitive luminescence on Envision plate readers (Perkin Elmer). Treated assay plates are incubated with compound for 72 hours. After 72 hours, plates are developed for endpoint analysis using ATPLite. All data points are collected via automated processes, quality controlled and analyzed using Zalicus software.
where T is treated cell count and V is untreated (vehicle) cell count (at 72 hours). I ranges from 0% (when T=V) to 100% (when T=0). […] The measure of effect in the experiment can be the inhibition of cellular response relative to the untreated level (vehicle alone). […] The inhibition ranges from 0% at the untreated level to 100% when T=0. Inhibition levels are negative for agents that actually increase levels. Other effect measures, such as an activity ratio r=T/V may be more appropriate for some assays. When activity ratios (e.g, fold increase over stimulated control) are being used, the effect can be measured using an induction 1=ln(T/V). With this definition, all effect expressions are the same as for inhibition.
Growth Inhibition (GI) is used as a measure of cell viability. […] A GI reading of 100% represents complete growth inhibition—T72 compound-treated and T0 vehicle signals are matched. […] A GI reading of 200% represents complete death of all cells in the culture well. Compounds reaching an activity plateau of GI 200% are considered cytotoxic. GI is calculated by applying the following test and equation:
Combination analysis data were collected in a 6×6 dose matrix. Synergy is calculated by comparing a combination's response to those of its single compound, against the drug-with-itself dose-additive reference model. Deviations from dose additivity may be assessed visually on an isobologram or numerically with a Combination Index (CI). […] Additive effect is CI=1.0. […] Antagonistic effect is CI>1.0.
The isobologram was drawn by identifying the locus of concentrations that correspond to crossing the indicated inhibition level. This is done by finding the crossing point for each single agent concentration in a dose matrix across the concentrations of the other single agent. Practically, each vertical concentration CY is held fixed while a bisection algorithm is used to identify the horizontal concentration CX in combination with that vertical dose that gives the chosen effect level in the response surface Z(CX,CY). These concentrations are then connected by linear interpolation to generate the isobologram display. For synergistic interactions, the isobologram contour fall below the additivity threshold and approaches the origin, and an antagonistic interaction would lie above the additivity threshold. The error bars represent the uncertainty arising from the individual data points used to generate the isobologram. The uncertainty for each crossing point is estimated from the response errors using bisection to find the concentrations where Z−αZ(CX,CY) and Z+σZ(CX,CY) cross Icut, where αZ is the standard deviation of the residual error on the effect scale.
To measure combination effects in excess of Loewe additivity, a scalar measure to characterize the strength of synergistic interaction termed the Synergy Score is devised. The Synergy Score is calculated as:
The fractional inhibition for each component agent and combination point in the matrix is calculated relative to the median of all vehicle-treated control wells.

For `COc1ccc(-c2ccc3c(N4CCOC[C@@H]4C)nc(N4CCOC[C@@H]4C)nc3n2)cc1CO` [AZD8055, (5-{2,4-bis[(3S)-3-methylmorpholin-4-yl]pyrido[2,3-d]pyrimidin-7-yl}-2-methoxyphenyl)methanol], the “effect of the combination (isobologram)” value with TMD8 (combination with Compound 1, TMD8 DLBCL cell line, FIG. 1-3) is reported as “synergistic effect”; with Farage, “synergistic effect”.
Consider `C=CC(=O)N1CCC[C@@H](n2nc(-c3ccc(Oc4ccccc4)cc3)c3c(N)ncnc32)C1` [PCI-32765], for which the CI50 growth inhibition entry is “S (S=0.01 to <0.5)” in the assay with HBL-1 (setting [1]); “S (S=0.01 to <0.5)” in the assay with HBL-1 (setting [2]); “S (S=0.01 to <0.5)” in the assay with OCI-Ly3 (combination with Cmpd 1); “T (T=0.5 to <0.7)” in the assay with U-2932 (setting [1]); “U (U=0.7 to <1)” in the assay on U-2932 (setting [2]); “S (S=0.01 to <0.5)” with TMD8 (combination with CAL-101). Besides, in the assay with TMD8 (combination with Cmpd 1), the CI50 growth inhibition result is reported as “U (U=0.7 to <1)”. The “Synergy Score growth inhibition” value is reported as “A2 (A2=1 to <3)” with HBL-1 (setting [1]); “A2 (A2=1 to <3)” in the assay on HBL-1 (setting [2]); “A1 (A1=0.0001 to <1)” in the assay on OCI-Ly3 (combination with CAL-101); “A1 (A1=0.0001 to <1)” with OCI-Ly3 (combination with Cmpd 1); “A2 (A2=1 to <3)” in the assay on U-2932 (setting [1]); “A2 (A2=1 to <3)” with U-2932 (setting [2]). In addition, the “Synergy Score growth inhibition” value with TMD8 (combination with CAL-101) and with TMD8 (combination with Cmpd 1) was “A3 (A3=>3)” in each case. Further, the “Synergy Score inhibition” value in the assay with HBL-1 (setting [1]) is “A1 (A1=0.0001 to <1)”; with HBL-1 (setting [2]) it was “A1 (A1=0.0001 to <1)”; with OCI-Ly3 (combination with CAL-101), “A1 (A1=0.0001 to <1)”; in the assay with OCI-Ly3 (combination with Cmpd 1), “A1 (A1=0.0001 to <1)”; in the assay on U-2932 (setting [1]), “A2 (A2=1 to <3)”; in the assay with U-2932 (setting [2]), “A2 (A2=1 to <3)”. In addition, the “Synergy Score inhibition” value with TMD8 (combination with CAL-101) and in the assay with TMD8 (combination with Cmpd 1) was “A3 (A3=>3)” in each case. Moreover, the CI50 inhibition result in the assay with U-2932 (setting [1]) is given as “U (U=0.7 to <1)”; in the assay on U-2932 (setting [2]) it was “U (U=0.7 to <1)”; in the assay on TMD8 (combination with CAL-101), “S (S=0.01 to <0.5)”; in the assay on TMD8 (combination with Cmpd 1), “T (T=0.5 to <0.7)”.
In the case of `CC(=O)c1c(C)c2cnc(Nc3ccc(N4CCNCC4)cn3)nc2n(C2CCCC2)c1=O` [PD-0332991], the “Synergy Score growth inhibition” value in the assay on HBL-1 (setting [1]) is listed as “A1 (A1=0.0001 to <1)”; in the assay on HBL-1 (setting [2]), “A1 (A1=0.0001 to <1)”; in the assay on OCI-Ly3 (combination with CAL-101) it was “A3 (A3=>3)”; in the assay with OCI-Ly3 (combination with Cmpd 1), “A2 (A2=1 to <3)”; in the assay on U-2932 (setting [1]) it was “A1 (A1=0.0001 to <1)”; in the assay with U-2932 (setting [2]), “A1 (A1=0.0001 to <1)”. Further, the “Synergy Score growth inhibition” value in the assay with TMD8 (combination with CAL-101) and with TMD8 (combination with Cmpd 1) was “A3 (A3=>3)” each time. Further, the “Synergy Score inhibition” value is recorded as “A1 (A1=0.0001 to <1)” in the assay on HBL-1 (setting [1]); “A1 (A1=0.0001 to <1)” in the assay on HBL-1 (setting [2]); “A2 (A2=1 to <3)” with OCI-Ly3 (combination with CAL-101); “A1 (A1=0.0001 to <1)” in the assay with OCI-Ly3 (combination with Cmpd 1); “A1 (A1=0.0001 to <1)” with U-2932 (setting [1]); “A1 (A1=0.0001 to <1)” in the assay on U-2932 (setting [2]). Moreover, the “Synergy Score inhibition” value in the assay on TMD8 (combination with CAL-101) and with TMD8 (combination with Cmpd 1) was “A2 (A2=1 to <3)” in each case. Moreover, the CI50 growth inhibition result in the assay on OCI-Ly3 (combination with CAL-101) is recorded as “S (S=0.01 to <0.5)”; in the assay on OCI-Ly3 (combination with Cmpd 1), “T (T=0.5 to <0.7)”; in the assay with TMD8 (combination with CAL-101), “S (S=0.01 to <0.5)”; with TMD8 (combination with Cmpd 1), “S (S=0.01 to <0.5)”. Also, the CI50 inhibition result with OCI-Ly3 (combination with CAL-101) was “S (S=0.01 to <0.5)”; with OCI-Ly3 (combination with Cmpd 1), “U (U=0.7 to <1)”; in the assay with TMD8 (combination with CAL-101), “S (S=0.01 to <0.5)”; in the assay on TMD8 (combination with Cmpd 1), “S (S=0.01 to <0.5)”.

Source of the values: patent US20240325398A1, “COMBINATION THERAPIES” (Infinity Pharmaceuticals, Inc., priority 2014, published 2024).
